Laboratory results taken from US8852629B2, “Drug delivery system for hydrophobic drugs” (Valeant Pharmaceuticals International, Inc., priority 2001, dated 2014).

Key:
[1] = lability in an aqueous environment; type: physicochemical; settings: must be lyophilized for storage
From the text: It has been a challenge to find suitable pharmaceutical formulations for hydrophobic polypyrrolic macrocyle based photosensitizers that can be filter sterilized and freeze dried, and can also be rapidly reconstituted in an aqueous medium prior to administration, while retaining a small particle size after rehydration. Photosensitive compounds such as verteporfin (BPD-MA) and QLT 0074 (EA6) must be lyophilized for storage, because they are labile in an aqueous environment.

[2] = storage stability (potency) of cryodesiccated MA composition; type: physicochemical; settings: room temperature
From the text: Once formulated, the MA of the invention may be freeze-dried for long-term storage if desired. […] If the composition is freeze-dried, it may be packed in vials for subsequent reconstitution with a suitable aqueous solution, such as sterile water or sterile water containing a saccharide and/or other suitable excipients, just prior to use. For example, reconstitution may be by simply adding water for injection just prior to administration.

**Q.** For “benzoporphyrin derivative monoacid ring A [BPD-MA]”, which “stability in an aqueous environment” value [1] is on record?
**A.** The value was “labile”.

**Q.** What about the “period over which potency was maintained” value [2] of the same substance?
**A.** The value was “at least nine”.
